Results on 22 compounds are retold here after ChEMBL document CHEMBL1201862, “PubChem BioAssay data set” (2004).

Active and inactive are the calls of the source.

The target in assay [1] is Voltage-dependent T-type calcium channel subunit alpha-1H (Homo sapiens, UniProt O95180). The class given is functional.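 Further: channel activity triggered by adding a high calcium stimulation buffer.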
A further assay has as its target T1, Leucine aminopeptidase (Plasmodium falciparum 3D7, UniProt Q8IL11).
T1 sequence (Q8IL11 whole entry): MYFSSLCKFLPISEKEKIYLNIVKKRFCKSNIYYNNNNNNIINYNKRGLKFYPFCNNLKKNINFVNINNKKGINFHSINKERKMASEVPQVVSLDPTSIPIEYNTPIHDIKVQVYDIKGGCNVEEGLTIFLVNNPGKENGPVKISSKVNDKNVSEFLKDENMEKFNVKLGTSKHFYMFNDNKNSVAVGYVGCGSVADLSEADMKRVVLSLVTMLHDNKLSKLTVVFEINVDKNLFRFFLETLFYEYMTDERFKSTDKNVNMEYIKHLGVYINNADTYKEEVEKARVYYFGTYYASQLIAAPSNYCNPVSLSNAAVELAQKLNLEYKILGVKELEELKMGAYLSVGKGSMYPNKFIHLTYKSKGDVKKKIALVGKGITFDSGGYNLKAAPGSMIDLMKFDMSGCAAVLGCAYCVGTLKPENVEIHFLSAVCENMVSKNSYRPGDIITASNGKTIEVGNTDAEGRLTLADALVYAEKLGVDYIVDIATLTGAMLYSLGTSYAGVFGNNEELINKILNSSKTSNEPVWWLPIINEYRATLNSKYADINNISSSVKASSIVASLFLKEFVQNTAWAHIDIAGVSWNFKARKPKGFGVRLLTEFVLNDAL
As to the kind of experiment: P. falciparum M17LAP inhibitors, primary screen, biochemical, fluorogenic H-Leu-NHMec substrate, 1536-well (AID 1619). The class given is functional.

The nature of assay [2]: A Cell Based Secondary Assay To Explore Cytotoxicity of Compounds that Sensitize Mycobacterium Tuberculosis to Beta-Lactam Antibiotics. It is filed as functional.
Assay [3] can be described thus: P. falciparum 3D7-ScDHODH growth inhibitors, dose response, SYBR Green, dry powder samples (AID 1159570).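 Further: parasite growth measured after 72 hours of compound exposure.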 The class given is functional, cell-based.
Assay [4] in a line: P. falciparum ATP4 D1247Y mutant growth inhibitors, dose response, NITD609-resistant line, SYBR Green, dry powder (AID 1159571).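 Further: parasites synchronized at ring stage by sorbitol before testing.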 It is filed as functional, cell-based.
The nature of assay [5]: HepG2 cell cytotoxicity, dose response, cytotoxicity control, plate reader, dry powder samples (AID 1159569).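 Further: inhibitor potency with signal falling toward the positive control level.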 It is filed as functional, cell-based.
The nature of assay [6]: P. falciparum Dd2 growth inhibitors, dose response, SYBR Green, dry powder samples (AID 1159566).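 Further: potency for growth inhibition with lower SYBR green DNA signal.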 The class given is functional, cell-based.
Assay [7] is described as follows: P. falciparum Dd2 growth inhibitors, dose response, SYBR Green, cherry-picked samples (AID 1159567). It is filed as functional, cell-based.
Another assay addresses Nonstructural protein 1 (Influenza A virus, UniProt Q194T2). The class given is functional, Influenza A virus (A/California/07/2009(H1N1)).
Assay [8] can be described thus: off-target signal loss in HeLa-CEM21 co-culture – HeLa F-luc CTL cells, cherry-picked, counter-screen for HIV-1 Env fusion inhibitor project, dose response (AID 652040).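 Further: potency for signal decrease marking cytotoxic or nonspecific inhibition.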 The class given is functional, cell-based.
Assay [9] in a line: cytotoxicity in HEK-293T cells, dose response, cytotoxicity control for TCR NF-kB inhibitor project, luminescence, T-cell screen hits (AID 489026).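 Further: cells exposed to compound about 14 hours before the viability readout.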 It is filed as functional, cell-based.
Assay [10] can be described thus: inhibitors of clade B AD8 Env fusion, dose response, cell-based, cherry-pick (AID 652062).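 Further: luciferase signal from cell-cell fusion driven by HIV-1 clade B AD8 Env; potency is for inhibitors of fusion seen as a drop in luminescence.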 The class given is functional.
Assay [11] in a line: inhibitors of HIV Env-driven cell fusion, dose response, cherry-pick (AID 652057). The class given is functional, cell-based.
Assay [12] in a line: ZM109 Env clade C HIV-1 fusion inhibitors, dose response, HeLa effector, CEM target cells, luciferase, cherry-pick (AID 652058). The class given is functional, cell-based.
Assay [13] has as its target T2, Carboxy-terminal domain RNA polymerase II polypeptide A small phosphatase 1 (Homo sapiens, UniProt Q9GZU7).
T2 sequence (Q9GZU7 whole entry): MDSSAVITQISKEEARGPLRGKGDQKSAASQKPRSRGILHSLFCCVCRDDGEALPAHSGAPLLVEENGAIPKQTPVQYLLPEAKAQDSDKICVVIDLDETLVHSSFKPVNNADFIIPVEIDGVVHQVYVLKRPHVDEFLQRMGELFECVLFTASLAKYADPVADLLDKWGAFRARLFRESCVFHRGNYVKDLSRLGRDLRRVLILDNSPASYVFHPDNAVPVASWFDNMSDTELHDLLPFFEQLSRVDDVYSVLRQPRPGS
As to the kind of experiment: inhibitors of CTDSP1, concentration-response testing, biochemical assay, absorbance-based, actives from ultra-high-throughput screening (AID 540297). It is filed as functional.

Assay [14] deals with Induced myeloid leukemia cell differentiation protein Mcl-1 (Homo sapiens, UniProt Q07820). The class given is functional.
In the next assay the target is Large T antigen (Simian virus 40, UniProt P03070). The class given is functional, Betapolyomavirus macacae.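 Further: Confirmatory-stage PubChem screen for compounds that inhibit SV40 T antigen.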
The nature of assay [15]: cytotoxicity toward DRD oncogenic fibroblasts, dose response, cell-based, non-viral oncogenic, luminescence (AID 1934). The class given is functional. Conditions: Homo sapiens.
Assay [16] addresses E3 ubiquitin-protein ligase Mdm2 (Homo sapiens, UniProt Q00987). As to the kind of experiment: enhancers of MDM2-luciferase reporter signal, concentration-effect titration, project on inhibitors of MDM2 ubiquitin ligase, cellular assay, luminescent readout, 384-well plate format (AID 1394).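 Further: MDM2 E3 inhibitors raise luminescence so EC50 is for signal enhancement.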 It is filed as functional.
The subject of assay [17] is BJ. As to the kind of experiment: cytotoxicity toward BJ-TERT fibroblasts, dose response, cell-based, RAS-independent, luminescence (AID 1933). It is filed as functional. The note with it: Homo sapiens.
Assay [18] deals with BJ. As to the kind of experiment: cytotoxicity toward BJ-TERT-LT-ST fibroblasts, dose response, cell-based, RAS-independent, luminescence (AID 1935).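 Further: BJ fibroblasts immortalized with TERT plus LT and ST oncogenes.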 Conditions: Homo sapiens. It is filed as functional.
Assay [19] deals with BJ. As to the kind of experiment: cells. Conditions: Homo sapiens. It is filed as functional, cell-based.
Assay [20] in a line: NIH-3T3 fibroblast cytotoxicity, dose response, cytotoxicity control, cell-based, fluorescence, Alamar Blue, secondary assay (AID 2327).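 Further: NIH-3T3 mouse fibroblasts cultured with fluconazole at 8 µg/mL.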 The class given is functional.
Assay [21] in a line: C. albicans growth with fluconazole, confirmation, fluorescence, retest (AID 2467). The class given is functional, cell-based.

Sequence of Voltage-dependent T-type calcium channel subunit alpha-1H (O95180 whole entry): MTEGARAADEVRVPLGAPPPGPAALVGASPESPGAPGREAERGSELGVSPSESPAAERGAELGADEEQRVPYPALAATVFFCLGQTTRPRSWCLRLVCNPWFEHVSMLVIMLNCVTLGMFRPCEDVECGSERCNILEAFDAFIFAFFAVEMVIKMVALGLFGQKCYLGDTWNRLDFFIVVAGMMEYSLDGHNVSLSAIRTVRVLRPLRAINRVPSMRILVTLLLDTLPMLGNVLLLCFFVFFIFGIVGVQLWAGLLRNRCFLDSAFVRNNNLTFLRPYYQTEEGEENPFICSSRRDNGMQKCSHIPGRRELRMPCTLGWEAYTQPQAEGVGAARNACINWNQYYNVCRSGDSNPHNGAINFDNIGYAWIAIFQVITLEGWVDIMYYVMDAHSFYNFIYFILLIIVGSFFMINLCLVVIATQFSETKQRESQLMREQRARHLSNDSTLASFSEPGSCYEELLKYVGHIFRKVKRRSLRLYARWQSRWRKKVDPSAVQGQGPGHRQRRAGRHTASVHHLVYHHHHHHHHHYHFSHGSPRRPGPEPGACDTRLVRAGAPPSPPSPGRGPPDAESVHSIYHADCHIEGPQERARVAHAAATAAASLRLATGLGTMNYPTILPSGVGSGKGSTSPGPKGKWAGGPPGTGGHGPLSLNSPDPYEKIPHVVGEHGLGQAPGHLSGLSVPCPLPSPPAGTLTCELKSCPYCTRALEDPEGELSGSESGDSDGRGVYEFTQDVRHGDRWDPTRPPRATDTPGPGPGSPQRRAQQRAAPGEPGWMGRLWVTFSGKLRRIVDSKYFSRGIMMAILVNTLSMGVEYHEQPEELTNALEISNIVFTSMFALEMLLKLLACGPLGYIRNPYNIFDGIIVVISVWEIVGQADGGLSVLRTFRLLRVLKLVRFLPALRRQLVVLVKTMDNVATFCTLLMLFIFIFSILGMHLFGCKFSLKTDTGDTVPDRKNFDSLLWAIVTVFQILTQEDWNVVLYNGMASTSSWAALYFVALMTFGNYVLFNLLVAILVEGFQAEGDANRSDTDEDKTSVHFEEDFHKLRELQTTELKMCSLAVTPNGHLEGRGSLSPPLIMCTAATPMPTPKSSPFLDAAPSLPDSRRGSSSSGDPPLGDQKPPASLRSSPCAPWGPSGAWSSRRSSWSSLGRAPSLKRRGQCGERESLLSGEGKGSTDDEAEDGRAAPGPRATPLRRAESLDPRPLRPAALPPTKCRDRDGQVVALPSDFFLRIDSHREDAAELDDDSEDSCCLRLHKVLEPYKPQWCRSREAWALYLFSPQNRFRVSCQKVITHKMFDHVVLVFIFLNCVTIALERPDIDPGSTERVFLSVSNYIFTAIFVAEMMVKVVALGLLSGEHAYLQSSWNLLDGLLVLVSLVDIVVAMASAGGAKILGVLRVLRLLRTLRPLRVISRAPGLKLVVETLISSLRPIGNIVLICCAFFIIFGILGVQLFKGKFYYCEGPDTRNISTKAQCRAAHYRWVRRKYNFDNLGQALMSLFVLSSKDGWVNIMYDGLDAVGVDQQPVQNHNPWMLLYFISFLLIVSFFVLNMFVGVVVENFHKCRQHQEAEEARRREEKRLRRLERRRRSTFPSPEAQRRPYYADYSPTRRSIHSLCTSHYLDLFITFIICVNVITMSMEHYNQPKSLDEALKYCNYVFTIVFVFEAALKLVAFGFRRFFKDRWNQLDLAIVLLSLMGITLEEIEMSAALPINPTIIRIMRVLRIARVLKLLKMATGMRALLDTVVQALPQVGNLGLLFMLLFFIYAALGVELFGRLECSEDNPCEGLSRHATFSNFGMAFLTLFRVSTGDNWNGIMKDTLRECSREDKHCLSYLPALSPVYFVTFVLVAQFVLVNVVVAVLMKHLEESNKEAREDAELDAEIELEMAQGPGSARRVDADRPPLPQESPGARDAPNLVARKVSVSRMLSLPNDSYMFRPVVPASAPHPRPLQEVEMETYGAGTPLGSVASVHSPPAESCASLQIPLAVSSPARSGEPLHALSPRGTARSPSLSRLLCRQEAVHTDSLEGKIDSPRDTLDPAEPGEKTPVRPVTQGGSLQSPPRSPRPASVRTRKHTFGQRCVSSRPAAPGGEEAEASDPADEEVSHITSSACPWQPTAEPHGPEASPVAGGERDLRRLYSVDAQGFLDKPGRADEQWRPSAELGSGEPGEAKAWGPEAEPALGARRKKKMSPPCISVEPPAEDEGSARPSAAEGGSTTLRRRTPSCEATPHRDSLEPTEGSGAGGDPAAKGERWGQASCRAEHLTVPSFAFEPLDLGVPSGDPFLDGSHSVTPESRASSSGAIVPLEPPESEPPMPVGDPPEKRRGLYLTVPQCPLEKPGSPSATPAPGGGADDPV
Sequence of Induced myeloid leukemia cell differentiation protein Mcl-1 (Q07820 whole entry): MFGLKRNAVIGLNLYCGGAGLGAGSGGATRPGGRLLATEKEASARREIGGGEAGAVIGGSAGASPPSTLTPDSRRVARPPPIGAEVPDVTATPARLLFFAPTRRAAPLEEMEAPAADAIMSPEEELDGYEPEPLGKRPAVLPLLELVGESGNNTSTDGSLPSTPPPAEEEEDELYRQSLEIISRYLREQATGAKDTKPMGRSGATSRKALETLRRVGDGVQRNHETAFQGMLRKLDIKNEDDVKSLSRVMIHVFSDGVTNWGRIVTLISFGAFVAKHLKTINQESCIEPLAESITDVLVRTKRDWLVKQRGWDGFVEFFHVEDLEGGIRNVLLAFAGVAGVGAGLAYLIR
Sequence of E3 ubiquitin-protein ligase Mdm2 (Q00987 whole entry): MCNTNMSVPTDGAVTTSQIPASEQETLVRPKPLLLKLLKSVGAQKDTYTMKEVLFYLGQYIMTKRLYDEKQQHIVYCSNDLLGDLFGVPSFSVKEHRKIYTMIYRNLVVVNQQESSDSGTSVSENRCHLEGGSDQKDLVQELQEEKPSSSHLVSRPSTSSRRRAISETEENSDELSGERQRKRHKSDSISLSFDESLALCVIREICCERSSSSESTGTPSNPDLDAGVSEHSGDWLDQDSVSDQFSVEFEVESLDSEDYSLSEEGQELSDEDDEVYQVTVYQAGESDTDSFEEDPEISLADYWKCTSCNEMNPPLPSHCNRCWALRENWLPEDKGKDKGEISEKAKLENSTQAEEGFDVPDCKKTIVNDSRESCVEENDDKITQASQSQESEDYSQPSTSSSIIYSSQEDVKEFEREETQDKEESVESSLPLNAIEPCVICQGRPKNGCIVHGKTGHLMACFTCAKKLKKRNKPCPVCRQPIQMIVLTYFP
Sequence of Nonstructural protein 1 (Q194T2 whole entry, the tested form may be a part): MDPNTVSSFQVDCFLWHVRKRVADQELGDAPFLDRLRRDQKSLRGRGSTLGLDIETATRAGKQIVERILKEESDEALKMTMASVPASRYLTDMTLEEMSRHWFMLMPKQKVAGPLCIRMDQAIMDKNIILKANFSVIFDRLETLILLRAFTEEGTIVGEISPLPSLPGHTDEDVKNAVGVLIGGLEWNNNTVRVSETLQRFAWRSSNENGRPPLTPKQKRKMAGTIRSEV
Sequence of Large T antigen (P03070 whole entry): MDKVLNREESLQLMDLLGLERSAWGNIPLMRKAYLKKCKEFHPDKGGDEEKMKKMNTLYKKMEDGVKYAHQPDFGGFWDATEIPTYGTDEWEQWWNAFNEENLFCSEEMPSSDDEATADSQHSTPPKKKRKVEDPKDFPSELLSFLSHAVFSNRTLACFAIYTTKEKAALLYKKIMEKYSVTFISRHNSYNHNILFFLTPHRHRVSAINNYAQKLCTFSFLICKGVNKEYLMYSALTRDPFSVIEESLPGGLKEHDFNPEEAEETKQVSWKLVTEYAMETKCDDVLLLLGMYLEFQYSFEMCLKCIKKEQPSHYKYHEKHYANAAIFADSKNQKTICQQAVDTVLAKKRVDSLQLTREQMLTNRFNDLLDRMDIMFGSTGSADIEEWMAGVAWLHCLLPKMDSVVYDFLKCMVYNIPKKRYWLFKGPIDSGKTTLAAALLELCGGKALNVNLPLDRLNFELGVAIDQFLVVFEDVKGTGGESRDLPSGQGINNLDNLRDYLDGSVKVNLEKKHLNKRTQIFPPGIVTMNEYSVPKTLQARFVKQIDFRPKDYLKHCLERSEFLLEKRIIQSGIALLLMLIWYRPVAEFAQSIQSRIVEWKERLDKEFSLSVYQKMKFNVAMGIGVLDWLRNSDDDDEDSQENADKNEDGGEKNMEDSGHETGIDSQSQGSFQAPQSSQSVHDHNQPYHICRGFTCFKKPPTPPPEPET

In the case of `Cc1ccc(Cl)cc1N1CCN(Cc2nnnn2Cc2ccco2)CC1`, the EC50 in assay [1] is 0.633 µM (active).
`Cc1cccc(NC(=O)CSc2nnc(NC(=O)CN3CCOCC3)s2)c1`: the IC50 on Leucine aminopeptidase was 14 µM (active).
For the compound `C/C(=N\NC(=O)c1ccccc1O)c1ccc(Br)s1`, the CC50 in assay [2] was 24.4 µM (active).
Regarding `O=C(Nc1ccc(C(F)(F)F)cc1)N1[C@@H]2CNC[C@H]1[C@H]2c1ccc(/C=C/c2ccccc2)cc1`, the concentration at half-maximal activity (AC50) in [3] was 1.76 µM (active); in [4] it was 1.52 µM (active); in [5] it was 66.2 µM (active); in [6], 1.4 µM (active); in [7], 2.46 µM (active).
With `Cc1oc(-c2ccccc2)nc1Cn1cccc1C1=NC(c2ccccc2)CO1` (stereo not given), the EC50 in assay [1] is 7.51 µM (active).
On to `Cc1cc(C)nc(N/N=C/c2c(CO)cnc(C)c2O)n1`, for which the IC50 at Nonstructural protein 1 was 20.2 µM (active).
In the case of `COc1ccc(NC(=O)C(=O)NCC2CCCN2S(=O)(=O)c2cccs2)cc1` (stereo not given), in assay [8], the AC50 was > 70 µM (inactive). Further, in assay [9], the IC50 is > 80 µM (inactive).
`O=c1c2ccccc2nc(CN2CCCCCC2)n1-c1ccc(F)cc1`: the half-maximal activity concentration (AC50) in assay [10] is 50.6 µM (active); in [8] it was 10.1 µM (active); in assay [11] it was 20.9 µM (active); in assay [12], 30.2 µM (active).
Regarding `O=c1/c(=C/c2ccc(O)c([N+](=O)[O-])c2)sc2nc3ccccc3n12`, the IC50 in assay [13] was 1.83 µM (active); in assay [14] it was 3.94 µM (active).
Turning to `COC(=O)c1ccc(Cl)c(NC(=O)CSc2nnc[nH]2)c1`, at Leucine aminopeptidase, the IC50 was 35.1 µM (active).
As for `CCOc1c(C)cnc2c1c(=O)n(Cc1ccc(Cl)cc1)c(=O)n2C`, the half-maximal activity concentration (AC50) is 8.07 µM (active) in [10], 12.5 µM (active) in [8], 7.77 µM (active) in assay [11] and 12.1 µM (active) in assay [12].
As to `COc1ccc(C2=NS(=O)(=O)N(C)C(C(=O)Nc3ccc4c(c3)OCO4)=C2)cc1OC`, the concentration for half-maximal inhibition (IC50) at Nonstructural protein 1 is > 100 µM (active).
For the compound `O=C(c1cccc(F)c1)N1CC(=O)N2[C@H](CO)[C@H](c3ccc(-c4cccnc4)cc3)[C@H]2C1`, the AC50 in [3] is 0.198 µM (active); in [4], 0.186 µM (active); in [5], > 100 µM (inactive); in assay [6] it was 0.133 µM (active); in assay [7] it was 0.326 µM (active).
With `COc1ccccc1-c1cccc(-c2nc(C(=O)Nc3nccs3)cc3c2[C@H](CCO)N(C(C)=O)C3)c1`, the AC50 in assay [3] was 3.93 µM (active); in [4], 1.96 µM (active); in [5] it was 66.8 µM (active); in [6], 2.08 µM (active); in [7] it was 2.15 µM (active).
With `CC1CCN(S(=O)(=O)c2ccc(NN=C(C#N)C#N)cc2)CC1`, in assay [1], the EC50 was 1.52 µM (active).
For the compound `CCC1(C(=O)OC)CCc2c(cc(OC)c3ccccc23)C1=O` (stereo not given), the half-inhibitory concentration (IC50) in assay [14] is on record as > 54 µM (not active).
As to `CCOC(=O)c1c(NC(C)=O)sc2c(O)c(Br)cc(Br)c12`, the half-maximal inhibitory concentration (IC50) was 4.76 µM (active) in [14] and 56.7 µM (active) on Large T antigen.
Take `CCSc1nc2ccccc2n1C(=O)/C=C\c1ccc(OC)c(OC)c1`: the IC50 in [9] is > 80 µM (inactive). For the same compound, the concentration giving a half-maximal response (EC50) is 4.6 µM (inconclusive) in assay [15]; 0.24 µM (active) in assay [16]; 4.41 µM (inconclusive) in the assay on BJ [17]; 5.15 µM (inconclusive) with BJ [18]; 8.04 µM (active) in the assay on BJ [19].
Turning to `CCCCCn1c(=O)c(C(=O)NCc2ccncc2)c(O)c2ccccc21`, the values for the EC50 in assay [20] and in assay [21] were > 150 µM (inactive) and > 38 µM (not active), respectively. In [2], the CC50 is 14.7 µM (active).
Take `O=C(Nc1ccc2c(c1)OCO2)C1CCN(Cc2cnn(-c3ccccc3)c2-n2cccc2)CC1`: in [1], the EC50 is 5.88 µM (active).
Regarding `Cc1cccc(Nc2nnc(SCC3CCCCO3)s2)c1C` (stereo not given), the EC50 in [16] is listed as 12.4 µM (not active).
On to `Cc1ccccc1NC(=O)CSc1nc(O)cc(C)c1C#N`, for which the IC50 on Leucine aminopeptidase is 10.9 µM (active).
